Experimental data as given in PubChem BioAssay (NCI).
Several values for one entry are separate records, joined by “and”; a condition that tells them apart may be missing. Identical values can stand only once.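 The compound was tested at five concentrations on cells cultured in 96-well plates, with a 48-hour exposure period. Abbreviation: GI50, concentration required for 50% inhibition of growth. At the TGI there is no net growth.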

Tests used:
Assay in all cases: NCI-60 cell line screen, 48 h
[1] = system: MALME-3M melanoma
[2] = system: CCRF-CEM leukemia
[3] = system: MCF7 breast
[4] = system: SW-620 colon
[5] = system: HOP-62 NSCLC
[6] = system: SN12C renal
[7] = system: SF-539 CNS
[8] = system: SNB-75 CNS
[9] = system: K-562 leukemia
[10] = system: KM12 colon

Compound | GI50 [1] [µM] | TGI [1] [µM] | GI50 [2] | TGI [2] | GI50 [3] | TGI [3] [µM] | GI50 [4] | TGI [4] | GI50 [5] | TGI [5] | GI50 [6] | TGI [6] [µM] | GI50 [7] | TGI [7] | GI50 [8] [µM] | TGI [8] [µM] | GI50 [9] | TGI [9] [µM] | GI50 [10] | TGI [10] [µM]
Fc1ccc(-c2nn3ccccc3c2-c2ccncc2)cc1 | > 25 | > 25 | > 25 µM | > 25 µM | > 23.1 µM | > 25 | > 25 µM | > 25 µM | > 25 µM | > 25 µM | > 25 µM | > 25 | > 25 µM | > 25 µM | > 19.7 | > 25 | > 25 µM | > 25 | > 25 µM | > 25
CN(C)Cc1ccc(NC(=O)c2cncc(C#Cc3cnc(N)c4ncccc34)c2)cc1F | 1.61 | 3.19 | 2.29 µM | 6.66 µM | 1.66 µM | 3.45 | 2.23 µM | 4 µM | 13.4 µM | 42.8 µM | 1.92 µM | 3.56 | 1.53 µM | 3.07 µM | 1.38 | 5.73 | 0.0566 µM | 1.85 | 1.7 µM | 3.16
N#Cc1nc(C#N)c(Sc2ccccc2)c(Sc2ccccc2)c1Sc1ccccc1 | 1.48 | 5.04 | 0.417 µM | > 100 µM | 0.565 µM | 2.41 | 0.232 µM | 0.5 µM |  | > 20 µM | 0.191 µM | 0.378 | 0.399 µM | 1.31 µM | 2.42 | > 29.3 | 1.55 µM | > 29.9 | 1.67 µM | 3.26
Cn1c(=O)c(Oc2ccc(F)cc2F)cc2cnc(N[C@@H]3CCOC3)nc21 | > 25 | > 25 | > 25 µM | > 25 µM | > 25 µM | > 25 | > 25 µM | > 25 µM | > 25 µM | > 25 µM | > 25 µM | > 25 | > 25 µM | > 25 µM | > 25 | > 25 | > 25 µM | > 25 | > 25 µM | > 25
COc1ccc(-c2cn(-c3ccc(OC)c(OC)c3)c(=O)[nH]2)cc1 | > 100 | > 100 | > 100 µM | > 100 µM | > 100 µM | > 100 | > 100 µM | > 100 µM | > 100 µM | > 100 µM | > 100 µM | > 100 | > 100 µM | > 100 µM | 24.6 | 98.7 | 37.4 µM | > 100 | 92.1 µM | > 100
[N-]=[N+]=NCCCn1c2c(c3ccc([N+](=O)[O-])cc3c1=O)C(=O)c1cc(-c3ccccc3)ccc1-2 | > 100 | > 100 | > 100 µM | > 100 µM | > 100 µM | > 100 | > 100 µM | > 100 µM | > 100 µM | > 100 µM | > 100 µM | > 100 | > 100 µM | > 100 µM | 43.3 | > 100 |  | > 100 | > 100 µM | > 100
Nc1ncc(-c2ccc3ncnc(N4CCc5ccc(Cl)cc54)c3c2)cc1C(F)(F)F | 0.919 | 6.22 | 3.87 µM | > 100 µM | 0.375 µM | 14.9 | 3.55 µM | 37.3 µM | 1.74 µM | 13.2 µM | 0.465 µM | 15.9 | 1.61 µM | 10.4 µM | 0.113 | 1.64 | 3.98 µM | > 100 | 2.48 µM | 48.3
O=C(/C=C/c1ccccn1)c1ccc(OCc2nnc(-c3ccc(Cl)cc3)o2)cc1 | 2.28 | 4.46 | 1.83 µM | 5.88 µM | 0.378 µM | 1.68 | 1.91 µM | 3.93 µM | 2.26 µM | 5.65 µM | 2.41 µM | 5.8 | 1.66 µM | 3.09 µM | 1.46 | 2.89 | 2 µM | 4.8 | 1.48 µM | 3.3
O=C(c1ccc([N+](=O)[O-])cc1)C(Br)C(Br)c1ccnc2ccccc12 (stereo unspecified) |  | 25.4 |  | 2.11 µM |  | 8.86 |  | 5.61 µM |  | 29.7 µM |  | 14.4 |  | 15.3 µM |  | 13.1 |  | > 33.3 |  | 5.13
O=C(Nc1cc(F)c(F)cc1C(=O)O)c1ccc(-n2ccnc2)nn1 | > 100 | > 100 | 98.2 µM | > 100 µM | > 100 µM | > 100 | > 100 µM | > 100 µM | > 100 µM | > 100 µM | > 100 µM | > 100 | 34.4 µM | > 100 µM | > 100 | > 100 | 80.5 µM | > 100 | > 100 µM | > 100
O=C1Nc2ccccc2/C1=C\c1nc(-c2ccccc2F)n2ccccc12 | 3.07 | 7.22 | 91.1 µM | > 100 µM | 2.1 µM | 12.2 | 3.97 µM | 14.2 µM | 2.37 µM | 5.93 µM | 4.32 µM | 17 | 3.1 µM | 11.1 µM | 1.79 | 4.95 | 6.35 µM | 19.7 | 3.49 µM | 14.4
C=C1C(=O)O[C@H]2[C@H]1CC/C(COC(=O)/C=C\C(=O)NCc1ccc(Cn3c(=O)sn(CCI)c3=O)cc1)=C\CC[C@@]1(C)O[C@@H]21 | 1.85 | 3.63 | 1.61 µM | 6.19 µM | 3.37 µM | 25.9 | 1.92 µM | 3.75 µM | 15.1 µM | 28.6 µM | 3.15 µM | 10.8 | 3.36 µM | 9.51 µM | 4.24 | 18.5 | 2.45 µM | > 100 | 11.5 µM | 24.5
COc1ccc2c(c1)CCc1cc(OC)ccc1/[N+]([O-])=[N+]\2[O-] |  | 38.5 |  | 5.74 µM |  | 26.7 |  | 26.1 µM |  | 52.8 µM |  | 31.6 |  | 44 µM |  | 33.3 |  | > 72.1 |  | 46
O=C1NC2(CCCCC2)C(=O)N1CCN(CCCl)CCCl | > 25 | > 194 | 12.2 µM | 25 µM and 212 µM | > 25 µM | > 250 | > 25 µM | > 25 µM and 150 µM | > 25 µM | > 25 µM and 149 µM | > 25 µM | > 250 | > 25 µM | > 250 µM | > 25 | > 250 | > 25 µM | > 250 | > 25 µM | > 194
Cc1ccc(-c2nc(-c3nccc4ccccc34)oc2-c2ccccc2)cc1 |  | > 100 |  | > 100 µM |  | > 100 |  | > 100 µM |  | > 100 µM |  | 62.7 |  | > 100 µM |  | 92.7 |  | > 100 |  | > 100
C#C[C@@]1(O)[C@@H](CO)O[C@@H](n2cc(C(F)(F)F)c3c(N)ncnc32)[C@@H]1O | 1.19 | 4.84 | 0.487 µM | > 37.2 µM | 0.0711 µM |  | 0.349 µM | > 21.7 µM | 1.75 µM | > 100 µM | 0.658 µM | > 100 | 0.86 µM | 2.71 µM | 1.12 | 3.42 | 0.291 µM | 0.909 | 0.365 µM | > 30.4
CC[C@H](C)[C@H](NC(=O)[C@H]1CCCCN1C)C(=O)N(C)[C@H](C[C@@H](OC(C)=O)c1cccc(C(=O)N[C@@H](Cc2ccccc2)C[C@H](C)C(=O)O)n1)C(C)C | 1.95 | > 25 | 0.000818 µM and 0.0025 µM | > 25 µM | 0.000341 µM and 0.0025 µM | > 25 | 0.000493 µM and 0.0025 µM | > 25 µM | 0.00275 µM and 0.0025 µM | > 25 µM | 0.00417 µM and 0.0025 µM | > 25 | 0.00148 µM and < 0.0025 µM | 0.00742 µM and < 0.0025 µM |  | > 25 | 0.000539 µM and 0.0025 µM | > 25 | 0.00116 µM and 0.0025 µM | > 25
COS(C)(=O)=O |  | > 2 |  | > 2 µM |  | > 2 |  | > 2 µM |  | > 2 µM |  | > 2 |  | > 2 µM |  | > 2 |  | > 2 |  | > 2
Cc1ccc(Cl)c(NS(=O)(=O)c2ccc(-c3cnc(C4CC4)o3)cc2)c1 | 11 | 49.7 | 0.0777 µM | > 100 µM | 0.0407 µM | 25.9 | 0.0528 µM | > 100 µM | 0.268 µM | > 83.7 µM | 0.415 µM | > 74.9 | 0.0803 µM | 1.54 µM | 0.0232 | 0.164 | 0.0479 µM | > 100 | 0.07 µM | 22.4
O=C(Nc1cc(Cl)ccc1O)c1cccc(Nc2ccnc(C(F)(F)F)c2)c1 | 2.22 | 11.2 | 1.93 µM | 6.8 µM | 2 µM | 17.9 | 4.32 µM | 18.5 µM | 4.4 µM | 23.5 µM | 3.36 µM | 25.5 | 2.07 µM | 15 µM | 6.27 | 22.2 | 0.713 µM | 12.4 | 3.68 µM | 14.4
CC(=O)/C(Br)=C/c1ccc(Br)o1 | 6.15 | 14.3 | 2.04 µM | 5.85 µM | 3.67 µM | 14.4 | 2.1 µM | 4.87 µM | 24.6 µM | 59.2 µM | 8.11 µM | 26.7 | 5 µM | 10.8 µM | 10.3 | 33.3 | 2.99 µM | > 36.5 | 12 µM | 25.9
COc1ccc(C(=O)c2cc3c(N)c(C(=O)Nc4cccc(Br)c4C)sc3nc2C)cc1 | 0.0542 | > 100 | 0.0409 µM | > 100 µM | 0.0396 µM | > 100 | 0.046 µM | > 100 µM | 0.0729 µM | > 100 µM | 0.0844 µM | > 100 | 0.0256 µM | 0.0809 µM | 0.0405 | > 100 | 0.0375 µM | > 100 | 0.0684 µM | > 36.3
CCCc1nc(Cl)c(Cl)c(Cl)n1 |  | > 51.4 |  | > 44.2 µM |  | > 78.6 |  | > 52.2 µM |  | > 83.4 µM |  | > 31.6 |  | 68.6 µM |  | > 100 |  | > 45.9 |  | > 100
COc1cc2c(c(OC)c1OC)-c1ccc(SC)c(=O)cc1[C@@H](NC(=O)C(F)(F)F)CC2 |  | > 88.1 |  | > 100 µM |  | > 82.2 |  | > 100 µM |  | > 100 µM |  | 16.5 |  | < 0.01 µM |  | 6.29 |  | > 85.2 |  | < 0.0631
Oc1ccc2ccccc2c1C=NCc1c(O)ccc2ccccc12 |  | > 100 |  | > 100 µM |  | > 100 |  | > 100 µM |  | > 100 µM |  | > 100 |  | > 100 µM |  | > 100 |  | > 100 |  | > 100
Clc1cccc(CNc2c3ccccc3nc3ccccc23)c1 | 1.61 | 3.02 | 2.31 µM | 8.77 µM | 1.62 µM | 3.53 | 1.47 µM | 3.91 µM | 2.77 µM | 12.4 µM | 2.36 µM | 11 | 1.78 µM | 3.32 µM | 1.76 | 6.44 | 2.39 µM | 11.2 | 2.49 µM | 7.7
COc1cc(-c2nc3ccccc3o2)cc(CN2CCCCC2)c1O | 1.8 | 3.87 | 4.06 µM | > 100 µM | 1.58 µM | 4.34 | 1.92 µM | 8.13 µM | 2.58 µM | 9.96 µM | 1.5 µM | 4.25 | 2.93 µM | 7.68 µM | 2.3 | 4.76 | 8.18 µM | > 100 | 2.39 µM | 16.6
